Source: US6818414B1, “Method of pretreatment of sample for quantitating cholesterol and method for quantitating cholesterol in specific lipoproteins by using the same” (Daiichi Pure Chemicals Co., Ltd., priority 1999, dated 2004)

System: cholesterol oxidase
Assay: Relative absorbance of free cholesterol reaction in serum with cholesterol oxidase and fulfenamic acid (Reagents J to L)
Type: biochemical
Conditions: 600 nm, 37° C. 5 minutes, pH 6.0/7.0/8.0, 5.0 U/mL cholesterol oxidase and 0 mM fulfenamic acid = 100, average of four serum samples
Procedure: Reagents J to L shown below in Table 6 were prepared, which commonly contained 1.25 U/mL peroxidase (product of Toyobo Co., Ltd.), 0.01% 4-aminoantipyrine, 0.02% disulfo butyl-m-toluidine and 50 mM NaCl and were different from each other in the kind and pH of buffer and the concentrations of cholesterol oxidase (product of Toyobo Co., Ltd.) and fulfenamic acid (product of Sigma Chemical Co.).
Reagents J to L (300 μL) were separately added to aliquots (3 μL) of each serum sample. After the resultant mixtures were incubated at 37° C. for 5 minutes, their absorbances were measured at600 nm. The above procedures were conducted using the Hitachi 7150 automated analyzer.
With respect to each of Reagents J to L, relative absorbances were calculated for the individual concentrations of cholesterol oxidase and fulfenamic acid by assuming that the absorbance obtained with a reagent containing 5.0 U/mL cholesterol oxidase and 0 mM fulfenamic acid was 100.
Results, which had been obtained by averaging the relative absorbances of the four samples, are presented in FIG. 3. in which “COD” stands for cholesterol oxidase.

SMILES: O=C(O)c1ccccc1Nc1cccc(C(F)(F)F)c1 [fulfenamic acid, flufenamic acid]
- relative absorbance: increased depending upon the concentration of fulfenamic acid irrespective of the pH
